Data published in patent US8999404B2, “Phaleria macrocarpa extract, extraction process and its use as cholesteryl ester transferase protein (CETP) inhibitor” (Pt. Dexa Medica, priority 2011, dated 2015).
“Also recorded” adds a separate entry of the source.

Key:
CETP gene expression = assay: Combination effect of double unsaturated fatty acid and DLBS1449 on CETP gene expression; assay type: cell-based, human; details: HepG2, 30 μM fatty acid alone, 24 hours, FIG. 8
Procedure: HepG2 cells were cultured at 6-well plate until 60% of cell density was reached. Change of medium was then performed, using serum-free medium and incubated for 24 hours. Those cells were then treated with 4 different treatments which were 30 μM of arachidonic acid, 30 μM of linoleic acid, combination of arachidonic acid with 75 μg/ml of DLBS1449 and combination of linoleic acid with 75 μg/ml of DLBS1449. These treatments were performed for 24 hours. Total RNA of HepG2 cells treated with DLBS1449 were isolated using Trizol solution according to the procedure available from the solution. Total RNA were then measured using NanoDrop machine and visualized using electrophoresis method. Further, RNA with good quality will be used to synthesize cDNA through RT-PCR process using PCR Thermocycler machine in a certain condition that has been optimized.

[1] = clinical trials, patients consuming the drug; cited from earlier work

Row | SMILES | CETP gene expression (CETP gene expression) | patients' blood pressure [1]
1 | CCCCC/C=C\C/C=C\C/C=C\C/C=C\CCCC(=O)O [arachidonic acid] | decrease the CETP gene expression | –
2 | CCCCC/C=C\C/C=C\CCCCCCCC(=O)O [linoleic acid] | greater decrease | –
3 | CCOC(=O)N1c2ccc(C(F)(F)F)cc2[C@@H](N(Cc2cc(C(F)(F)F)cc(C(F)(F)F)c2)C(=O)OC)C[C@H]1CC [torcetrapib] | – | increase of blood pressure; also recorded: increase in patients' blood pressure
